Laboratory results taken from PubChem BioAssay AID328 (DTP/NCI, 2004).
Values joined by “and” are separate entries in the source; they are usually repeats but may differ in a detail not shown here. Equal entries are not always repeated. Inconclusive results and toxic doses are left out. Rule for the calls: active = survival T/C of 150% or more; inactive = T/C below 125% in these data. Residues, ends and D or L forms follow the SMILES beside them.

Test system: BDF1 mice, P388 leukemia ip, median survival T/C
Experiment: NCI In Vivo Anticancer Drug Screen. Data for tumor model P388 Leukemia (intraperitoneal) in B6D2F1 (BDF1) mice
Settings: endpoint: median survival time, higher = longer survival
Method in brief: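 Steps: implant the tumour, treat one group with compound and another with vehicle, record survival, then divide treated by control.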

[1] = dose: 100.0 mg/kg/injection, schedule: Q04DX003 (ip), vehicle: saline with Tween-80
[2] = dose: 200.0 mg/kg/injection, schedule: Q04DX003 (ip), vehicle: saline with Tween-80
[3] = dose: 25.0 mg/kg/injection, schedule: Q01DX009 (ip), vehicle: saline
[4] = dose: 50.0 mg/kg/injection, schedule: Q01DX009 (ip), vehicle: saline
[5] = dose: 100.0 mg/kg/injection, schedule: Q01DX009 (ip), vehicle: saline
[6] = dose: 25.0 mg/kg/injection, schedule: Q01DX009 (ip), vehicle: saline with Tween-80
[7] = dose: 50.0 mg/kg/injection, schedule: Q01DX009 (ip), vehicle: saline with Tween-80
[8] = dose: 100.0 mg/kg/injection, schedule: Q01DX009 (ip), vehicle: saline with Tween-80
[9] = dose: 200.0 mg/kg/injection, schedule: Q01DX009 (ip), vehicle: saline with Tween-80
[10] = dose: 400.0 mg/kg/injection, schedule: Q01DX009 (ip), vehicle: saline with Tween-80
[11] = dose: 400.0 mg/kg/injection, schedule: Q04DX003 (ip), vehicle: saline with Tween-80
[12] = dose: 50.0 mg/kg/injection, schedule: Q04DX003 (ip), vehicle: saline
[13] = dose: 100.0 mg/kg/injection, schedule: Q04DX003 (ip), vehicle: saline
[14] = dose: 25.0 mg/kg/injection, schedule: Q04DX003 (ip), vehicle: saline with Tween-80
[15] = dose: 25.0 mg/kg/injection, schedule: Q01DX009 (ip), vehicle: Klucel (hydroxypropylcellulose) (HPC)
[16] = dose: 50.0 mg/kg/injection, schedule: Q01DX009 (ip), vehicle: Klucel (hydroxypropylcellulose) (HPC)
[17] = dose: 100.0 mg/kg/injection, schedule: Q01DX009 (ip), vehicle: Klucel (hydroxypropylcellulose) (HPC)
[18] = dose: 200.0 mg/kg/injection, schedule: Q01DX009 (ip), vehicle: Klucel (hydroxypropylcellulose) (HPC)
[19] = dose: 200.0 mg/kg/injection, schedule: Q04DX003 (ip), vehicle: saline
[20] = dose: 50.0 mg/kg/injection, schedule: Q04DX003 (ip), vehicle: saline with Tween-80

Measured: T/C

COC(=O)[C@]1(C)CCC[C@]2(C)c3ccc(C(C)C)cc3CC[C@@H]12
inactive: dose: 0.5 mg/kg/injection, schedule: Q01DX009 (ip), vehicle: Klucel (hydroxypropylcellulose) (HPC) 100 % of control | dose: 0.5 mg/kg/injection, schedule: Q04DX003 (ip), vehicle: Klucel (hydroxypropylcellulose) (HPC) 100 % of control | dose: 1.0 mg/kg/injection, schedule: Q01DX009 (ip), vehicle: Klucel (hydroxypropylcellulose) (HPC) 103 % of control | dose: 1.0 mg/kg/injection, schedule: Q04DX003 (ip), vehicle: Klucel (hydroxypropylcellulose) (HPC) 100 % of control | dose: 2.0 mg/kg/injection, schedule: Q01DX009 (ip), vehicle: Klucel (hydroxypropylcellulose) (HPC) 92 % of control | dose: 2.0 mg/kg/injection, schedule: Q04DX003 (ip), vehicle: Klucel (hydroxypropylcellulose) (HPC) 104 % of control

Cc1nc2ccccc2c(=O)n1C(C)(C)CCl
inactive: [1] 100 % of control | [2] 109 % of control

O[C@]12CC=CC[C@]1(O)CC(N1CCCCC1)C2
inactive: [3] 99 % of control | [4] 124 % of control | [5] 92 % of control

OC1CCC(O)C1(Cl)Cl (stereo not given)
inactive: [3] 109 % of control | [4] 108 % of control | [5] 98 % of control

O=C/C=C/c1ccc([N+](=O)[O-])cc1
inactive: [6] 104 % of control | [7] 108 % of control | [8] 91 % of control

CC12CCC3C(CCC4=CC(=O)C(C(O)(C(F)(F)F)C(F)(F)F)CC43C)C1CC(C(O)(C(F)(F)F)C(F)(F)F)C2=O (stereo not given)
inactive: dose: 100.0 mg/kg/injection, schedule: Q01DX001 (sc), vehicle: steriod suspending solution 100 % of control | dose: 200.0 mg/kg/injection, schedule: Q01DX001 (sc), vehicle: steriod suspending solution 100 % of control | dose: 400.0 mg/kg/injection, schedule: Q01DX001 (sc), vehicle: steriod suspending solution 95 % of control

CCOC(=O)CNC(=O)NC12CC3CC(CC(C3)C1)C2
inactive: [5] 119 % of control | dose: 200.0 mg/kg/injection, schedule: Q01DX009 (ip), vehicle: saline 104 % of control | dose: 400.0 mg/kg/injection, schedule: Q01DX009 (ip), vehicle: saline 102 % of control

CN(N=O)C(=O)NCCSSCCNC(=O)N(C)N=O
active: dose: 80.0 mg/kg/injection, schedule: Q04DX003 (ip), vehicle: saline with Tween-80 170 % of control
inactive: dose: 53.0 mg/kg/injection, schedule: Q04DX003 (ip), vehicle: saline with Tween-80 120 % of control | dose: 120.0 mg/kg/injection, schedule: Q04DX003 (ip), vehicle: saline with Tween-80 100 % of control

COC(=O)C1=C(C)NC2(C)SC1C(C)C2C(=O)OC (stereo not given)
inactive: [8] 107 % of control | [9] 98 % of control

O=Cc1c2ccc(Cl)cc2nc2cc(Cl)ccc12
inactive: dose: 200.0 mg/kg/injection, schedule: Q01DX001 (ip), vehicle: saline with Tween-80 91 % of control

O=[N+]([O-])c1ccc(Sc2cccs2)c([N+](=O)[O-])c1
inactive: [8] 100 % of control | [1] 104 % of control | [9] 95 % of control | [2] 95 % of control | [10] 108 % of control | [11] 100 % of control

C=CCN(CC=C)CC=C
inactive: dose: 25.0 mg/kg/injection, schedule: Q04DX003 (ip), vehicle: saline 111 % of control | [12] 108 % of control | [13] 111 % of control

O=[N+]([O-])c1ccc(N/N=C/CCl)c([N+](=O)[O-])c1
inactive: dose: 6.25 mg/kg/injection, schedule: Q04DX003 (ip), vehicle: saline with Tween-80 120 % of control | dose: 12.5 mg/kg/injection, schedule: Q04DX003 (ip), vehicle: saline with Tween-80 120 % of control | dose: 16.5 mg/kg/injection, schedule: Q04DX003 (ip), vehicle: saline with Tween-80 118 % of control | [14] 118 % of control

O=[N+]([O-])c1[nH]cnc1Br
inactive: [15] 93 % of control | [16] 96 % of control | [17] 96 % of control | [18] 86 % of control

C#CC1(O)CCC2C3CCc4cc(OC)ccc4C3CCC21C (stereo not given)
inactive: dose: 40.0 mg/kg/injection, schedule: Q01DX009 (sc), vehicle: saline with Tween-80 100 % of control | dose: 80.0 mg/kg/injection, schedule: Q01DX009 (sc), vehicle: saline with Tween-80 100 % of control | dose: 100.0 mg/kg/injection, schedule: Q04DX003 (sc), vehicle: saline with Tween-80 88 % of control | dose: 160.0 mg/kg/injection, schedule: Q01DX009 (sc), vehicle: saline with Tween-80 100 % of control | dose: 200.0 mg/kg/injection, schedule: Q04DX003 (sc), vehicle: saline with Tween-80 94 % of control | dose: 400.0 mg/kg/injection, schedule: Q04DX003 (sc), vehicle: saline with Tween-80 88 % of control

Cn1nnnc1N/N=C(\Br)c1ccccc1
inactive: [6] 110 % of control | [7] 105 % of control | [8] 120 % of control | [1] 104 % of control | [9] 120 % of control | [2] 95 % of control | [11] 90 % of control

Cc1ccc(NS(=O)(=O)c2ccc([N+](=O)[O-])cc2)c(C)c1
inactive: [1] 100 % of control | [2] 104 % of control | [11] 104 % of control

O=C(Nc1ccc(Cl)c(C(F)(F)F)c1)Nc1ccc(Oc2ccc(Cl)cc2)cc1S(=O)(=O)O
inactive: [12] 100 % of control | [13] 95 % of control | [19] 95 % of control

CCOC(=O)/C(C#N)=C/c1c(-c2ccccc2)nn2ccccc12
inactive: [7] 96 % of control | [8] 91 % of control

CCN(CC)CCCCCCNc1cc(OC)c(OC)c2c(C)ccnc12
inactive: dose: 3.13 mg/kg/injection, schedule: Q01DX009 (ip), vehicle: saline 102 % of control | dose: 6.25 mg/kg/injection, schedule: Q01DX009 (ip), vehicle: saline 109 % of control

CN(C1=NS(=O)(=O)N=C(N(C)c2ccccc2)O1)c1ccccc1
inactive: [15] 122 % of control | [16] 102 % of control | [7] 89 % of control | [17] 115 % of control | [8] 99 % of control | [18] 105 % of control

CC(=O)NC(C)C(=O)NC(C)C(=O)NC(C)C(=O)NC(C)C(=O)O (stereo not given) (Ac-AAAA-OH; configuration not given here)
inactive: dose: 50.0 mg/kg/injection, schedule: Q01DX005 (ip), vehicle: saline with Tween-80 98 % of control | dose: 100.0 mg/kg/injection, schedule: Q01DX005 (ip), vehicle: saline with Tween-80 95 % of control

COC(=O)C(CSCSC)NC(=O)/C=C/c1ccccc1C (stereo not given)
inactive: [7] 101 % of control | [8] 98 % of control | [1] 104 % of control | [9] 101 % of control | [2] 91 % of control | [10] 114 % of control | [11] 104 % of control

Clc1ccc(N=Cc2cccs2)cc1
inactive: [7] 96 % of control | [8] 102 % of control | [9] 88 % of control

O=NN(CCCl)C(=O)NC1CC2CCC1C2 (stereo not given)
inactive: dose: 75.0 mg/kg/injection, schedule: Q04DX003 (ip), vehicle: saline with Tween-80 113 % of control
active: dose: 33.0 mg/kg/injection, schedule: Q04DX003 (ip), vehicle: saline with Tween-80 272 % of control

O=C1CCC2(CCCC2)c2ccccc21
inactive: dose: 25.0 mg/kg/injection, schedule: Q01DX009 (ip), vehicle: water 95 % of control | dose: 50.0 mg/kg/injection, schedule: Q01DX009 (ip), vehicle: water 97 % of control | dose: 100.0 mg/kg/injection, schedule: Q01DX009 (ip), vehicle: water 106 % of control | dose: 200.0 mg/kg/injection, schedule: Q01DX009 (ip), vehicle: water 103 % of control | dose: 400.0 mg/kg/injection, schedule: Q01DX009 (ip), vehicle: water 106 % of control

CCCNC(=O)OCc1c(COC(=O)NCCC)c(-c2ccc(Cl)c(Cl)c2)n2c1CCC2
active: dose: 25.0 mg/kg/injection, schedule: Q01DX009 (ip), vehicle: other 151 % of control | dose: 50.0 mg/kg/injection, schedule: Q01DX009 (ip), vehicle: other 172 % of control

Cc1cc(N(CCO)CCO)c2cc3ccc4cccc5ccc(c2n1)c3c45
inactive: [14] 98 % of control | [20] 110 % of control | [1] 93 % of control and 100 % of control

C1=CCONC1
inactive: [20] 99 % of control | [1] 104 % of control | [13] 103 % of control | [2] 100 % of control | [19] 120 % of control | dose: 400.0 mg/kg/injection, schedule: Q04DX003 (ip), vehicle: saline 93 % of control
